pIC50: −log10 of the molar value.
How the values were obtained:
NIH3T3 [1] = test: Cytotoxicity against mouse NIH/3T3 cells after 48 hrs by LDH release assay; assay type: cell-based; details: NIH3T3, 48 h
HeLa [2] = test: Cytotoxicity against human HeLa cells after 48 hrs by LDH release assay; assay type: functional, cell-based
MCF7 [3] = test: Cytotoxicity against human MCF7 cells after 48 hrs by trypan blue exclusion assay; assay type: functional, cell-based; details: MCF7, 48 h
MCF7 [4] = test: Cytotoxicity against human MCF7 cells after 48 hrs by LDH release assay; assay type: functional, cell-based; details: MCF7, 48 h
HeLa [5] = test: Cytotoxicity against human HeLa cells after 48 hrs by trypan blue exclusion assay; assay type: functional, cell-based
MCF7 [6] = test: Cytotoxicity against human MCF7 cells after 48 hrs by MTT assay; assay type: functional, cell-based; details: MCF7, 48 h
NIH3T3 [7] = test: Cytotoxicity against mouse NIH/3T3 cells after 48 hrs by trypan blue exclusion assay; assay type: cell-based; details: NIH3T3, 48 h
A549 [8] = test: Cytotoxicity against human A549 cells after 48 hrs by LDH release assay; assay type: functional, cell-based; details: A549, 48 h
A549 [9] = test: Cytotoxicity against human A549 cells after 48 hrs by trypan blue exclusion assay; assay type: functional, cell-based; details: A549, 48 h
HeLa [10] = test: Cytotoxicity against human HeLa cells after 48 hrs by MTT assay; assay type: functional, cell-based
A549 [11] = test: Cytotoxicity against human A549 cells after 48 hrs by MTT assay; assay type: functional, cell-based; details: A549, 48 h
NIH3T3 [12] = test: Cytotoxicity against mouse NIH/3T3 cells after 48 hrs by MTT assay; assay type: cell-based; details: NIH3T3, 48 h

Compound	pIC50 (NIH3T3 [1])	pIC50 (HeLa [2])	pIC50 (MCF7 [3])	pIC50 (MCF7 [4])	pIC50 (HeLa [5])	pIC50 (MCF7 [6])	pIC50 (NIH3T3 [7])	pIC50 (A549 [8])	pIC50 (A549 [9])	pIC50 (HeLa [10])	pIC50 (A549 [11])	pIC50 (NIH3T3 [12])
Cc1ccc(C(=O)c2cc(F)c(OCC(=O)NNC(=O)c3ccc(=O)oc3)c(Cl)c2)cc1	4.49	4.57	4.54	4.62	4.58	4.63	4.51	4.67	4.71	4.68	4.65	4.54
O=C(COc1c(F)cc(C(=O)c2ccc(Cl)cc2)cc1Cl)NNC(=O)c1ccc(=O)oc1	4.10	4.07	4.04	4.08	4.05	4.06	4.10	4.07	4.06	4.06	4.05	4.11
Cn1cnc(C(=O)NNC(=O)COc2c(F)cc(C(=O)c3ccc(F)cc3)cc2Cl)c1	4.03	4.39	4.35	4.35	4.40	4.35	4.03	4.39	4.40	4.37	4.40	4.05
Cn1cnc(C(=O)NNC(=O)COc2ccc(C(=O)c3ccccc3)cc2)c1	4.01	4.50	4.53	4.50	4.48	4.51	4.01	4.50	4.53	4.48	4.51	4.01
